In patent publication US5369096A, “Glycolipid derivatives” (The Nisshin Oil Mills, Ltd., priority 1992, dated 1994):

Tests used:
Assay type in all cases: cell-based
[1] = system: human normal lymphocytes adhering to vascular endothelial cells of the normal human umbilical cord; assay: inhibition of adhesion of human normal lymphocytes to rhIL1β-stimulated vascular endothelial cells, liposome dispersion; settings: 20 μg/ml equivalent; for Amount of human normal lymphocytes adhered (fluorescence intensity): rhIL1β 200 U/ml, 485 nm/535 nm
Experimental: (§1) A solution of 200 μg of phosphatidylcholine, 100 μg of cholesterol, 7.5 μg of dicetyl phosphate and 50 μg of a compound of the invention in a mixture of chloroform/methanol=2/1 (ca. 1 ml) was evaporated under reduced pressure to dryness followed by addition of 0.25 ml of a phosphate-buffered saline solution. The mixture was ultrasonicated (an output of 90 watts) for 5 min. and stirred (a vortex mixer) for 5 min. to form a liposome dispersion.
(§2) Vascular endothelial cells of the normal human umbilical cord grown to confluence were stimulated in 24-well plates with 200 U/ml of rhIL1β at 37° C. for 4 hours. After removal of the supernatant by suction, liposome dispersions each prepared from a compound of the invention in an amount of 20 μg/ml equivalent were added except for the rhIL1β-untreated group (sample 1) and the treated groups (samples 2 and 3). The mixtures were then allowed to react at room temperature for 30 min. Subsequently, human normal lymphocytes with 2',7'-bis-(carboxyethyl)-5,6-carboxyfluorescene acetoxymethyl ester fluorescent dye enclosed was added at a level of 2×10^6 cells per well followed by centrifugal operation at 100 rpm for 20 min. Each hole was washed three times followed by addition of 0.5 ml of 0.5% Triton X-100 and stirring. The contents were divided into 100 μl portions in 96-well plates and measurement was made on a Baxter fluorometer at 485 nm/535 nm.
4: rhIL1β-treated group+compound 5A-containing liposome dispersion-treated group (2EG)
5: rhIL1β-treated group+compound 5B-containing liposome dispersion-treated group (3EG)
6: rhIL1β-treated group+compound 5C-containing liposome dispersion-treated group (4EG)
7: rhIL1β-treated group+compound 5D-containing liposome dispersion-treated group (5EG)
Amount adhered and % inhibition of adhesion of human normal lymphocytes as measured from fluorescence intensity are shown in Table 4 below.

[2] = system: human normal lymphocytes adhering to vascular endothelial cells of the normal human umbilical cord; assay: inhibition of adhesion of human normal lymphocytes to rhIL1β-stimulated vascular endothelial cells, oily emulsion; settings: 20 μg/ml equivalent; for Amount adhered (fluorescence intensity): rhIL1β 200 U/ml, 485 nm/535 nm
Experimental: A mixed solution of 6 mg of egg yolk lecithin (manufactured by Nacalaitesque Inc.), 30 μl of soybean oil J. P. (manufactured by Yoshida Seiyaku), 470 μl of distilled water for injection (manufacturedby Otsuka Seiyaku) and 125 μg of a compound of the invention was ultrasonicated (an output of 90 watts) for 10 min. to prepare an oily emulsion. The oily emulsion was further passed through a polycarbonate membrane filter having 0.2 μm average pore diameter (manufactured by Millipore) to provide an average particle size of 0.2 μm.
Vascular endothelial cells of the normal human umbilical cord grown to confluence were stimulated in 24-well plates with 200 U/ml of rhIL1ββat 37° C. for 4 hours. After removal of the supernatant by suction, oily emulsions each prepared from a compound of the invention in an amount of 20 μg/ml equivalent were added except for the rhIL1β-untreated (Sample 1) and treated groups (Samples 2 and 3). The mixtures were then allowed to react at room temperature for 30 min. Subsequently, human normal lymphocytes with 2',7'-bis(carboxyethyl)-5,6-carboxyfluorescence acetoxymethyl ester fluorescent dye enclosed was added at a level of 2×10^6 cells per well followed by centrifugal operation at 100 rpm for 20 min. Each well was washed three times followed by addition of 0.5 ml of 0.5% Triton X-100 and stirring. The contents were divided into 100 μl portions in 96-well plates and measurement was made on a Baxter fluorometer at 485 nm/535 nm.
4: rhIL1β-treated group+2→3 sialyl Lewis X-containing oily emulsion dispersion-treated group
5: rhIL1β-treated group+compound 5E-containing oily emulsion dispersion-treated group (OEG)
6: rhIL1β-treated group+compound 5A-containing oily emulsion dispersion-treated group (2EG)
7: rhIL1β-treated group+compound 5B-containing oily emulsion dispersion-treated group (3EG)
8: rhIL1β-treated group+compound 5C-containing oily emulsion dispersion-treated group (4EG)
9: rhIL1β-treated group+compound 5D-containing oily emulsion dispersion-treated group (5EG)
Amount adhered and percent inhibition of adhesion of human normal lymphocytes as measured from fluorescence intensity are shown in Table 5 below.

[3] = system: HL-60 cells adhering to vascular endothelial cells of the normal human umbilical cord; assay: inhibition of adhesion of HL-60 cells to rhIL1β-stimulated vascular endothelial cells, liposome dispersion; settings: 20 μg/ml equivalent; for Amount of HL-60 cancer cells adhered (fluorescence intensity): rhIL1β 200 U/ml, 485 nm/535 nm
Experimental: as §1
as §2, with “of recombinant interleukin 1β (called hereafter rhIL1β, manufactured by Genzyme)” for “of rhIL1β”, “Subsequently, promyelocytic leukemia cell line HL-60” for “Subsequently, human normal lymphocytes”, “with 2',7'-bis(carboxyethyl)-5,6-carboxyfluorescene” for “with 2',7'-bis-(carboxyethyl)-5,6-carboxyfluorescene”, “of 1×10^6” for “of 2×10^6”, “Each well” for “Each hole”
4: rhIL1β-treated group+compound 5A-containing liposome dispersion-treated group (2EG)*
5: rhIL1β-treated group+compound 5B-containing liposome dispersion-treated group (3EG)*
6: rhIL1β-treated group+compound 5C-containing liposome dispersion-treated group (4EG)*
7: rhIL1β-treated group+compound 5D-containing liposome dispersion-treated group (5EG)*
* 2EG, 3EG, 4EG or 5EG represents a compound of the invention containing 2, 3, 4 or 5 CH2 CH2 O units, respectively. The same shall apply hereinafter.
% Inhibition of adhesion=100-[(fluorescence intensity for rhIL1β-treated group+compound-free or a compound-containing liposome dispersion-treated group)-(fluorescence intensity for rhIL1β-untreated group)/(fluorescence intensity for rhIL1β-treated group-fluorescence intensity for rhIL1β-untreatedgroup)]×100

## CCCCCCCCCCCCCCC(CCCCCCCCCCCCCC)C(=O)Nc1ccc(COCCOCCO[C@@H]2O[C@H](CO)[C@@H](O[C@@H]3O[C@H](CO)[C@H](O)[C@H](O[C@]4(C(=O)O)C[C@H](O)[C@@H](NC(C)=O)[C@H]([C@H](O)[C@H](O)CO)O4)[C@H]3O)[C@H](O[C@@H]3O[C@@H](C)[C@@H](O)[C@@H](O)[C@@H]3O)[C@H]2O)cc1 [Compound 5A, O-(5-acetamido-3,5-dideoxy-D-glycero-α-D-galacto-2-nonulopyranosylonic acid)-(2→3)-O-β-D-galactopyranosyl-(1→4)-[O-α-L-fucopyranosyl-(1→3)-O-β-D-glucopyranosyl]-(1→1)-5-O-para-(2-tetradecylhexadecanoyl)aminobenzyl-3-oxapentane-1,5-diol]
[1]
  Amount of human normal lymphocytes adhered (fluorescence intensity): 6882
[1]; human normal lymphocytes
  % Inhibition of adhesion: 61.9%
[2]
  % Inhibition of adhesion: 65.8%
  Amount adhered (fluorescence intensity): 9773
[3]
  Amount of HL-60 cancer cells adhered (fluorescence intensity): 22769
[3]; HL-60 cells
  % Inhibition of adhesion: 80.04%

## CCCCCCCCCCCCCCC(CCCCCCCCCCCCCC)C(=O)Nc1ccc(COCCOCCOCCO[C@@H]2O[C@H](CO)[C@@H](O[C@@H]3O[C@H](CO)[C@H](O)[C@H](O[C@]4(C(=O)O)C[C@H](O)[C@@H](NC(C)=O)[C@H]([C@H](O)[C@H](O)CO)O4)[C@H]3O)[C@H](O[C@@H]3O[C@@H](C)[C@@H](O)[C@@H](O)[C@@H]3O)[C@H]2O)cc1 [Compound 5B, O-(5-acetamido-3,5-dideoxy-D-glycero-α-D-galacto-2-nonulopyranosylonic acid)-(2→3)-O-β-D-galactopyranosyl-(1→4)-[O-α-L-fucopyranosyl-(1→3)-O-β-D-glucopyranosyl]-(1→1)-8-O-para-(2-tetradecylhexadecanoyl)aminobenzyl-3,6-dioxaoctane-1,8-diol]
[1]
  Amount of human normal lymphocytes adhered (fluorescence intensity): 6993
[2]
  Amount adhered (fluorescence intensity): 10045
[3]
  Amount of HL-60 cancer cells adhered (fluorescence intensity): 17957

## CCCCCCCCCCCCCCC(CCCCCCCCCCCCCC)C(=O)Nc1ccc(COCCOCCOCCOCCO[C@@H]2O[C@H](CO)[C@@H](O[C@@H]3O[C@H](CO)[C@H](O)[C@H](O[C@]4(C(=O)O)C[C@H](O)[C@@H](NC(C)=O)[C@H]([C@H](O)[C@H](O)CO)O4)[C@H]3O)[C@H](O[C@@H]3O[C@@H](C)[C@@H](O)[C@@H](O)[C@@H]3O)[C@H]2O)cc1 [Compound 5C, O-(5-acetamido-3,5-dideoxy-D-glycero-α-D-galacto-2-nonulopyranosylonic acid)-(2→3)-O-β-D-galactopyranosyl-(1→4)-[O-α-L-fucopyranosyl-(1→3)-O-β-D-glucopyranosyl]-(1→1)-11-O-para-(2-tetradecylhexadecanoyl)aminobenzyl-3,6,9-trioxaundecane-1,11-diol]
[1]
  Amount of human normal lymphocytes adhered (fluorescence intensity): 10513
[2]
  Amount adhered (fluorescence intensity): 13563
[3]
  Amount of HL-60 cancer cells adhered (fluorescence intensity): 26907

## CCCCCCCCCCCCCCC(CCCCCCCCCCCCCC)C(=O)Nc1ccc(COCCOCCOCCOCCOCCO[C@@H]2O[C@H](CO)[C@@H](O[C@@H]3O[C@H](CO)[C@H](O)[C@H](O[C@]4(C(=O)O)C[C@H](O)[C@@H](NC(C)=O)[C@H]([C@H](O)[C@H](O)CO)O4)[C@H]3O)[C@H](O[C@@H]3O[C@@H](C)[C@@H](O)[C@@H](O)[C@@H]3O)[C@H]2O)cc1 [Compound 5D, O-(5-acetamido-3,5-dideoxy-D-glycero-α-D-galacto-2-nonulopyranosylonic acid)-(2→3)-O-β-D-galactopyranosyl-(1→4)-[O-α-L-fucopyranosyl-(1→3)-O-β-D-glucopyranosyl]-(1→1)-5-O-para-(2-tetradecylhexadecanoyl)aminobenzyl-3,6,9,12-tetraoxatetradecane-1,14-diol]
[1]
  Amount of human normal lymphocytes adhered (fluorescence intensity): 8817
[2]
  Amount adhered (fluorescence intensity): 10324
[3]
  Amount of HL-60 cancer cells adhered (fluorescence intensity): 17405
